From the supplement of paper PMC10307832

Key:
Test in all cases: relative viability (nuclei count vs DMSO), 5 days (fraction); higher = more cells survive
Tosedostat + Pemetrexed = compound: CC(C)C[C@@H](C(=O)N[C@H](C(=O)OC1CCCC1)c1ccccc1)[C@H](O)C(=O)NO [Tosedostat] + Nc1nc2[nH]cc(CCc3ccc(C(=O)N[C@@H](CCC(=O)O)C(=O)O)cc3)c2c(=O)[nH]1 [Pemetrexed] (partner 0.2 µM)
How it was run: (§1)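 Each reported value is a median over duplicate plates. It expresses relative viability: treated-well nuclei count divided by vehicle-well nuclei count. Lung cancer cell lines in 1536-well plates were dosed by pin tool a day after seeding, alone with one drug or with a fixed anchor-drug dose plus five library-drug doses (not always all listed) in √10 steps, and nuclei were counted after 5 days.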

[1] = compound: CC1=NN=C(O1)C2=NN=C(C=C2)N3CCC(CC3)OC4=C(C=CC(=C4)F)Cl + O=C(CCCCCCC(=O)Nc1ccccc1)NO [Vorinostat] (partner 1 µM)
How it was run: as §1

[2] = compound: CC1=NN=C(O1)C2=NN=C(C=C2)N3CCC(CC3)OC4=C(C=CC(=C4)F)Cl + CS(=O)(=O)N1CCN(Cc2cc3nc(-c4cccc5[nH]ncc45)nc(N4CCOCC4)c3s2)CC1 [Pictilisib] (partner 1 µM)
How it was run: as §1

Tosedostat + Olaparib = compound: CC(C)C[C@@H](C(=O)N[C@H](C(=O)OC1CCCC1)c1ccccc1)[C@H](O)C(=O)NO [Tosedostat] + O=C(c1cc(Cc2n[nH]c(=O)c3ccccc23)ccc1F)N1CCN(C(=O)C2CC2)CC1 [Olaparib] (partner 8 µM)
How it was run: as §1

NCI-H2347
relative viability (Tosedostat + Pemetrexed; first compound 0.02 µM): 0.443
relative viability (Tosedostat + Pemetrexed; first compound 0.06325 µM): 0.425
relative viability (Tosedostat + Pemetrexed; first compound 0.2 µM): 0.434
relative viability (Tosedostat + Pemetrexed; first compound 0.6325 µM): 0.421
relative viability (Tosedostat + Pemetrexed; first compound 2 µM): 0.374
relative viability ([1]; first compound 0.253 µM): 0.629
relative viability ([1]; first compound 0.8 µM): 0.597
relative viability ([1]; first compound 2.53 µM): 0.428
relative viability ([1]; first compound 8 µM): 0.501
relative viability ([2]; first compound 0.253 µM): 0.024
relative viability ([2]; first compound 0.8 µM): 0.53
relative viability ([2]; first compound 2.53 µM): 0.422
relative viability ([2]; first compound 8 µM): 0.753
relative viability (Tosedostat + Olaparib; first compound 0.02 µM): 0.694
relative viability (Tosedostat + Olaparib; first compound 0.06325 µM): 0.618
relative viability (Tosedostat + Olaparib; first compound 0.2 µM): 0.539
relative viability (Tosedostat + Olaparib; first compound 0.6325 µM): 0.58
relative viability (Tosedostat + Olaparib; first compound 2 µM): 0.484

NCI-H2405
relative viability (Tosedostat + Pemetrexed; first compound 0.02 µM): 1.02
relative viability (Tosedostat + Pemetrexed; first compound 0.06325 µM): 1.04
relative viability (Tosedostat + Pemetrexed; first compound 0.2 µM): 1.05
relative viability (Tosedostat + Pemetrexed; first compound 0.6325 µM): 0.875
relative viability (Tosedostat + Pemetrexed; first compound 2 µM): 0.85
relative viability ([1]; first compound 0.253 µM): 0.583
relative viability ([1]; first compound 0.8 µM): 0.556
relative viability ([1]; first compound 2.53 µM): 0.535
relative viability ([1]; first compound 8 µM): 0.455
relative viability ([2]; first compound 0.253 µM): 0.401
relative viability ([2]; first compound 0.8 µM): 0.523
relative viability ([2]; first compound 2.53 µM): 0.4
relative viability ([2]; first compound 8 µM): 0.385
relative viability (Tosedostat + Olaparib; first compound 0.02 µM): 0.972
relative viability (Tosedostat + Olaparib; first compound 0.06325 µM): 0.902
relative viability (Tosedostat + Olaparib; first compound 0.2 µM): 0.856
relative viability (Tosedostat + Olaparib; first compound 0.6325 µM): 0.777
relative viability (Tosedostat + Olaparib; first compound 2 µM): 0.697

NCI-H3122
relative viability (Tosedostat + Pemetrexed; first compound 0.02 µM): 0.206
relative viability (Tosedostat + Pemetrexed; first compound 0.06325 µM): 0.213
relative viability (Tosedostat + Pemetrexed; first compound 0.2 µM): 0.21
relative viability (Tosedostat + Pemetrexed; first compound 0.6325 µM): 0.312
relative viability (Tosedostat + Pemetrexed; first compound 2 µM): 0.325
relative viability ([1]; first compound 0.253 µM): 0.484
relative viability ([1]; first compound 0.8 µM): 0.484
relative viability ([1]; first compound 2.53 µM): 0.443
relative viability ([1]; first compound 8 µM): 0.345
relative viability ([2]; first compound 0.253 µM): 0.643
relative viability ([2]; first compound 0.8 µM): 0.593
relative viability ([2]; first compound 2.53 µM): 0.648
relative viability ([2]; first compound 8 µM): 0.642
relative viability (Tosedostat + Olaparib; first compound 0.02 µM): 0.631
relative viability (Tosedostat + Olaparib; first compound 0.06325 µM): 0.593
relative viability (Tosedostat + Olaparib; first compound 0.2 µM): 0.574
relative viability (Tosedostat + Olaparib; first compound 0.6325 µM): 0.508
relative viability (Tosedostat + Olaparib; first compound 2 µM): 0.562

PC-3 [JPC-3]
relative viability (Tosedostat + Pemetrexed; first compound 0.02 µM): 1.03
relative viability (Tosedostat + Pemetrexed; first compound 0.06325 µM): 1.18
relative viability (Tosedostat + Pemetrexed; first compound 0.2 µM): 0.918
relative viability (Tosedostat + Pemetrexed; first compound 0.6325 µM): 0.901
relative viability (Tosedostat + Pemetrexed; first compound 2 µM): 0.54
relative viability ([1]; first compound 0.253 µM): 0.703
relative viability ([1]; first compound 0.8 µM): 0.526
relative viability ([1]; first compound 2.53 µM): 0.797
relative viability ([1]; first compound 8 µM): 0.478
relative viability ([2]; first compound 0.253 µM): 0.602
relative viability ([2]; first compound 0.8 µM): 0.677
relative viability ([2]; first compound 2.53 µM): 0.84
relative viability ([2]; first compound 8 µM): 0.654
relative viability (Tosedostat + Olaparib; first compound 0.02 µM): 1.11
relative viability (Tosedostat + Olaparib; first compound 0.06325 µM): 1.11
relative viability (Tosedostat + Olaparib; first compound 0.2 µM): 1
relative viability (Tosedostat + Olaparib; first compound 0.6325 µM): 0.921
relative viability (Tosedostat + Olaparib; first compound 2 µM): 0.747

PC-14
relative viability (Tosedostat + Pemetrexed; first compound 0.02 µM): 0.125
relative viability (Tosedostat + Pemetrexed; first compound 0.06325 µM): 0.135
relative viability (Tosedostat + Pemetrexed; first compound 0.2 µM): 0.157
relative viability (Tosedostat + Pemetrexed; first compound 0.6325 µM): 0.124
relative viability (Tosedostat + Pemetrexed; first compound 2 µM): 0.09
relative viability ([1]; first compound 0.253 µM): 0.695
relative viability ([1]; first compound 0.8 µM): 0.543
relative viability ([1]; first compound 2.53 µM): 0.714
relative viability ([1]; first compound 8 µM): 0.567
relative viability ([2]; first compound 0.253 µM): 0.603
relative viability ([2]; first compound 0.8 µM): 0.735
relative viability ([2]; first compound 2.53 µM): 0.781
relative viability ([2]; first compound 8 µM): 0.702
relative viability (Tosedostat + Olaparib; first compound 0.02 µM): 0.264
relative viability (Tosedostat + Olaparib; first compound 0.06325 µM): 0.256
relative viability (Tosedostat + Olaparib; first compound 0.2 µM): 0.193
relative viability (Tosedostat + Olaparib; first compound 0.6325 µM): 0.152
relative viability (Tosedostat + Olaparib; first compound 2 µM): 0.122

RERF-LC-KJ
relative viability (Tosedostat + Pemetrexed; first compound 0.02 µM): 0.49
relative viability (Tosedostat + Pemetrexed; first compound 0.06325 µM): 0.499
relative viability (Tosedostat + Pemetrexed; first compound 0.2 µM): 0.51
relative viability (Tosedostat + Pemetrexed; first compound 0.6325 µM): 0.486
relative viability (Tosedostat + Pemetrexed; first compound 2 µM): 0.466
relative viability ([1]; first compound 0.253 µM): 0.347
relative viability ([1]; first compound 0.8 µM): 0.467
relative viability ([1]; first compound 2.53 µM): 0.453
relative viability ([1]; first compound 8 µM): 0.493
relative viability ([2]; first compound 0.253 µM): 0.561
relative viability ([2]; first compound 0.8 µM): 0.529
relative viability ([2]; first compound 2.53 µM): 0.482
relative viability ([2]; first compound 8 µM): 0.454
relative viability (Tosedostat + Olaparib; first compound 0.02 µM): 0.903
relative viability (Tosedostat + Olaparib; first compound 0.06325 µM): 0.999
relative viability (Tosedostat + Olaparib; first compound 0.2 µM): 0.829
relative viability (Tosedostat + Olaparib; first compound 0.6325 µM): 0.757
relative viability (Tosedostat + Olaparib; first compound 2 µM): 0.747

SK-LU-1
relative viability (Tosedostat + Pemetrexed; first compound 0.02 µM): 1
relative viability (Tosedostat + Pemetrexed; first compound 0.06325 µM): 0.9
relative viability (Tosedostat + Pemetrexed; first compound 0.2 µM): 1.05
relative viability (Tosedostat + Pemetrexed; first compound 0.6325 µM): 0.962
relative viability (Tosedostat + Pemetrexed; first compound 2 µM): 0.868
relative viability ([1]; first compound 0.253 µM): 0.675
relative viability ([1]; first compound 0.8 µM): 0.629
relative viability ([1]; first compound 2.53 µM): 0.662
relative viability ([1]; first compound 8 µM): 0.589
relative viability ([2]; first compound 0.253 µM): 0.518
relative viability ([2]; first compound 0.8 µM): 0.508
relative viability ([2]; first compound 2.53 µM): 0.529
relative viability ([2]; first compound 8 µM): 0.42
relative viability (Tosedostat + Olaparib; first compound 0.02 µM): 0.467
relative viability (Tosedostat + Olaparib; first compound 0.06325 µM): 0.45
relative viability (Tosedostat + Olaparib; first compound 0.2 µM): 0.335
relative viability (Tosedostat + Olaparib; first compound 0.6325 µM): 0.391
relative viability (Tosedostat + Olaparib; first compound 2 µM): 0.367

SK-MES-1
relative viability (Tosedostat + Pemetrexed; first compound 0.02 µM): 1.01
relative viability (Tosedostat + Pemetrexed; first compound 0.06325 µM): 1
relative viability (Tosedostat + Pemetrexed; first compound 0.2 µM): 1.11
relative viability (Tosedostat + Pemetrexed; first compound 0.6325 µM): 1.14
relative viability (Tosedostat + Pemetrexed; first compound 2 µM): 0.993
relative viability ([1]; first compound 0.253 µM): 0.781
relative viability ([1]; first compound 0.8 µM): 0.765
relative viability ([1]; first compound 2.53 µM): 0.766
relative viability ([1]; first compound 8 µM): 0.702
relative viability ([2]; first compound 0.253 µM): 0.263
relative viability ([2]; first compound 0.8 µM): 0.377
relative viability ([2]; first compound 2.53 µM): 0.341
relative viability ([2]; first compound 8 µM): 0.384
relative viability (Tosedostat + Olaparib; first compound 0.02 µM): 0.719
relative viability (Tosedostat + Olaparib; first compound 0.06325 µM): 0.672
relative viability (Tosedostat + Olaparib; first compound 0.2 µM): 0.698
relative viability (Tosedostat + Olaparib; first compound 0.6325 µM): 0.601
relative viability (Tosedostat + Olaparib; first compound 2 µM): 0.404

SW 1573
relative viability (Tosedostat + Pemetrexed; first compound 0.02 µM): 0.972
relative viability (Tosedostat + Pemetrexed; first compound 0.06325 µM): 0.856
relative viability (Tosedostat + Pemetrexed; first compound 0.2 µM): 0.899
relative viability (Tosedostat + Pemetrexed; first compound 0.6325 µM): 0.777
relative viability (Tosedostat + Pemetrexed; first compound 2 µM): 1
relative viability ([1]; first compound 0.253 µM): 0.717
relative viability ([1]; first compound 0.8 µM): 0.421
relative viability ([1]; first compound 2.53 µM): 0.434
relative viability ([1]; first compound 8 µM): 0.251
relative viability ([2]; first compound 0.253 µM): 0.527
relative viability ([2]; first compound 0.8 µM): 0.415
relative viability ([2]; first compound 2.53 µM): 0.473
relative viability ([2]; first compound 8 µM): 0.383
relative viability (Tosedostat + Olaparib; first compound 0.02 µM): 0.493
relative viability (Tosedostat + Olaparib; first compound 0.06325 µM): 0.42
relative viability (Tosedostat + Olaparib; first compound 0.2 µM): 0.363
relative viability (Tosedostat + Olaparib; first compound 0.6325 µM): 0.372
relative viability (Tosedostat + Olaparib; first compound 2 µM): 0.281
